Experimental data published in ChEMBL document CHEMBL1201862, “PubChem BioAssay data set” (2004).
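Protocol summary: plate cells (96-well), add compound at 5 concentrations, incubate 48 h, interpolate endpoints linearly. The concentration for 50% growth inhibition is given as GI50.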 Calls of active or inactive are those of the source. Rule as the data show it: active = GI50 up to about 1.1 µM and inactive = higher.

Key:
Assay in all cases: inhibition of tumour cell growth, NCI panel, 48 h
[1] = system: 786-0
[2] = system: A498
[3] = system: A549
[4] = system: ACHN
[5] = system: BT-549
[6] = system: CAKI-1
[7] = system: CCRF-CEM
[8] = system: COLO 205
[9] = system: DU-145
[10] = system: EKVX
[11] = system: HCC 2998
[12] = system: HCT-116
[13] = system: HCT-15
[14] = system: HL-60
[15] = system: HOP-62
[16] = system: HT-29
[17] = system: Hs-578T
[18] = system: IGROV-1
[19] = system: KM12
[20] = system: M14
[21] = system: MCF7
[22] = system: MDA-MB-231
[23] = system: MDA-MB-435
[24] = system: MDA-N
[25] = system: MOLT-4
[26] = system: Malme-3M
[27] = system: NCI-H226
[28] = system: NCI-H23
[29] = system: NCI-H460
[30] = system: NCI-H522
[31] = system: NCI/ADR-RES
[32] = system: OVCAR-3
[33] = system: OVCAR-4
[34] = system: OVCAR-5
[35] = system: OVCAR-8
[36] = system: PC-3
[37] = system: RPMI-8226
[38] = system: RXF 393
[39] = system: SF-268
[40] = system: SF-295
[41] = system: SK-MEL-28
[42] = system: SK-MEL-2
[43] = system: SK-MEL-5
[44] = system: SK-OV-3
[45] = system: SN12C
[46] = system: SNB-19
[47] = system: SNB-75
[48] = system: SW-620
[49] = system: T47D
[50] = system: TK-10
[51] = system: U-251
[52] = system: UACC-257
[53] = system: UACC-62
[54] = system: UO-31
[55] = system: HOP-92
[56] = system: LOX IMVI

CCCCSC1=N/C(=C\c2ccco2)C(Cl)=N1
GI50 [1]: > 100 µM (inactive)
GI50 [2]: > 100 µM (inactive)
GI50 [3]: > 100 µM (inactive)
GI50 [4]: > 100 µM (inactive)
GI50 [5]: > 100 µM (inactive)
GI50 [6]: > 100 µM (inactive)
GI50 [7]: > 100 µM (inactive)
GI50 [8]: > 100 µM (inactive)
GI50 [9]: > 100 µM (inactive)
GI50 [10]: > 100 µM (inactive)
GI50 [11]: > 100 µM (inactive)
GI50 [12]: > 100 µM (inactive)
GI50 [13]: > 100 µM
GI50 [14]: > 100 µM (inactive)
GI50 [15]: > 100 µM (inactive)
GI50 [16]: > 100 µM (inactive)
GI50 [17]: > 100 µM (inactive)
GI50 [18]: > 100 µM (inactive)
GI50 [19]: > 100 µM (inactive)
GI50 [20]: > 100 µM (inactive)
GI50 [21]: > 100 µM (inactive)
GI50 [22]: > 100 µM (inactive)
GI50 [23]: > 100 µM (inactive)
GI50 [24]: > 100 µM (inactive)
GI50 [25]: > 100 µM (inactive)
GI50 [26]: > 100 µM (inactive)
GI50 [27]: > 100 µM (inactive)
GI50 [28]: > 100 µM (inactive)
GI50 [29]: > 100 µM (inactive)
GI50 [30]: > 100 µM (inactive)
GI50 [31]: > 100 µM (inactive)
GI50 [32]: > 100 µM (inactive)
GI50 [33]: > 100 µM (inactive)
GI50 [34]: > 100 µM (inactive)
GI50 [35]: > 100 µM (inactive)
GI50 [36]: > 100 µM (inactive)
GI50 [37]: > 100 µM (inactive)
GI50 [38]: > 100 µM (inactive)
GI50 [39]: > 100 µM (inactive)
GI50 [40]: > 100 µM (inactive)
GI50 [41]: > 100 µM (inactive)
GI50 [42]: > 100 µM (inactive)
GI50 [43]: > 100 µM (inactive)
GI50 [44]: > 100 µM (inactive)
GI50 [45]: > 100 µM (inactive)
GI50 [46]: > 100 µM (inactive)
GI50 [47]: > 100 µM (inactive)
GI50 [48]: > 100 µM (inactive)
GI50 [49]: > 100 µM (inactive)
GI50 [50]: > 100 µM (inactive)
GI50 [51]: > 100 µM (inactive)
GI50 [52]: > 100 µM (inactive)
GI50 [53]: > 100 µM (inactive)
GI50 [54]: > 100 µM (inactive)

Brc1cccc(Nc2ncnc3sc4c(c23)CCC2(C4)OCCO2)c1
GI50 [1]: 25.7 µM (inactive)
GI50 [2]: 15.3 µM (inactive)
GI50 [3]: 80 µM (inactive)
GI50 [4]: 4.68 µM (inactive)
GI50 [5]: 27.5 µM (inactive)
GI50 [6]: 10.5 µM (inactive)
GI50 [8]: 18 µM (inactive)
GI50 [9]: 7.28 µM (inactive)
GI50 [10]: 19.3 µM (inactive)
GI50 [11]: 23.7 µM (inactive)
GI50 [12]: 27.2 µM (inactive)
GI50 [13]: 25.4 µM
GI50 [15]: 52.4 µM (inactive)
GI50 [55]: 10.7 µM (inactive)
GI50 [16]: 45.4 µM (inactive)
GI50 [17]: 28.4 µM (inactive)
GI50 [18]: 8.73 µM (inactive)
GI50 [19]: 24 µM (inactive)
GI50 [56]: 18.6 µM (inactive)
GI50 [20]: 31.1 µM (inactive)
GI50 [21]: 28.3 µM (inactive)
GI50 [22]: 87.1 µM (inactive)
GI50 [23]: 28.2 µM (inactive)
GI50 [24]: 33.6 µM (inactive)
GI50 [26]: 39.2 µM (inactive)
GI50 [27]: 18.6 µM (inactive)
GI50 [28]: 29.8 µM (inactive)
GI50 [29]: 33.3 µM (inactive)
GI50 [30]: 12.3 µM (inactive)
GI50 [31]: 22.3 µM (inactive)
GI50 [32]: 28.4 µM (inactive)
GI50 [33]: 20.1 µM (inactive)
GI50 [34]: > 100 µM (inactive)
GI50 [35]: 24.5 µM (inactive)
GI50 [36]: 33.7 µM (inactive)
GI50 [39]: 27.6 µM (inactive)
GI50 [40]: 32.5 µM (inactive)
GI50 [42]: 33 µM (inactive)
GI50 [43]: 15.8 µM (inactive)
GI50 [44]: 32.1 µM (inactive)
GI50 [45]: 27.4 µM (inactive)
GI50 [46]: 34.3 µM (inactive)
GI50 [47]: 23.1 µM (inactive)
GI50 [48]: 0.0203 µM (active)
GI50 [49]: 5.61 µM (inactive)
GI50 [50]: 7.73 µM (inactive)
GI50 [51]: 35.6 µM (inactive)
GI50 [52]: 26.7 µM (inactive)
GI50 [53]: 22.9 µM (inactive)
GI50 [54]: 2.07 µM (inactive)
